pIC50: −log10 of the molar value.
Key:
[1] = Pharmacokinetic analysis of compounds in rats; format: in vivo, SD rats; conditions: for F %: po 10 mg/kg vs iv 1 mg/kg
Description: Healthy adult SD rats weighing 180-220 g were fasted (free access to water) overnight and divided into tail vein administration group and intragastric administration group. The tail vein administration group was subjected to blood collection of 0.1 mL from orbital venous plexus before the administration and 5 min, 15 min, 0.5 h, 1 h, 2 h, 4 h, 8 h, 12 h and 24 h after the administration, and plasma was separated out by centrifugation at 4° C. for 5 min and stored at −20° C. for test. The intragastric administration group was subjected to blood collection of 0.1 mL from orbital venous plexus before the administration and 5 min, 15 min, 0.5 h, 1 h, 2 h, 4 h, 8 h, 12 h and 24 h after the administration, and the subsequent treatment procedures were the same as those of the tail vein injection group. The concentration of parent drug in the plasma was determined by LC-MS/MS.

[2] = system: Human monocyte cell line THP-1; test: Detection of THP-1 cell pyroptosis (Caspase-Glo 1 Inflammasome Assay); format: cell-based; conditions: 20 nM PMA 48 h, 1 μg/mL LPS, compound 3 h
How it was run: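 Differentiated with 20 nM PMA for 48 h (50,000 cells/well), then given serum-free medium with 1 μg/mL LPS and compound in a 10-point, 3-fold series from 10 μM for 3 h at 37 °C. Caspase-1 activity read with Caspase-Glo 1 Inflammasome kit; IC50 calculated.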

[3] = system: IL-1β release in human PBMCs; test: Assay of IL-1β release in human PBMCs; format: cell-based; conditions: 10 ng/mL LPS 3 h, compound 0.5 h, 5 mM ATP 1 h, ELISA
Description: 5 mL of human venous whole blood from a healthy donor was placed in a Li-heparin tube. PBMCs were isolated and incubated in a culture medium containing 10 ng/mL LPS at 37° C./5% CO2 for 3 h. Cells were plated in a 96-well plate at 50 μL per well. 25 μL of compound or solvent control was added to each well and 3-fold diluted in gradient from a maximum concentration of 10 μM, and 8 gradient concentrations were set. The mixtures were incubated for 0.5 h. 25 μL of ATP at a final concentration of 5 mM was added to each well, and the resulting mixtures were incubated for 1 h. After the incubation, the mixtures were centrifuged at 1500 rpm for 20 min, and the supernatant was collected to detect the expression level of […] by ELISA (BD, Human IL-1β ELISA Set II, Cat #557953). IC50 was calculated using GraphPad Prism7.0 software. The results are shown in Table 2, which indicate that: the compounds disclosed herein down-regulate release of mature IL-1β by inhibiting the activity of Caspase-1, and the IC50 is <50 nM.

[4] = SD rats, iv (tail vein), 1 mg/kg, plasma
[5] = SD rats, po (intragastric), 10 mg/kg, plasma

C[C@@H](c1ccc2c(c1NC(=O)NS(=N)(=O)c1cc(C(C)(C)O)co1)CC2)C1CC1 (mixture of isomers) [Compound 38-1, RS- and SS-N-((3-((R)-1-cyclopropylethyl)bicyclo[4.2.0]octa-1(6),2,4-trien-2-yl)carbamoyl)-4-(2-hydroxypropan-2-yl)furan-2-sulfonimidamide]
AUC [1, 4]: 2112 ng·h/mL | Cl [1, 4]: 8.2 mL/min/kg | Vss [1, 4]: 0.679 L/kg | t1/2 [1, 4]: 2.2 h | F % ([1]; SD rats): 184% | AUC [1, 5]: 38823 ng·h/mL | Cmax [1, 5]: 13267 ng/mL | t1/2 [1, 5]: 3.1 h | pIC50 ([2]; THP-1 pyroptosis): ≥ 7.00

C[C@@H](c1cc(F)c2c(c1NC(=O)N[S@@](=N)(=O)c1cc(C(C)(C)O)co1)CCC2)C1CC1 (mixture of isomers) [Compound 42-1, (R)- and (S)-N-((5-((R)-1-cyclopropylethyl)-7-fluoro-2,3-dihydro-1H-inden-4-yl)carbamoyl)-4-(2-hydroxypropan-2-yl)furan-2-sulfonimidamide]
pIC50 ([2]; Homo sapiens, THP-1, THP-1 pyroptosis): 6.30 to 7.00 | pIC50 ([3]; PBMC): 7.73

C[C@@H](c1ccc2c(c1NC(=O)NS(=N)(=O)c1cc(C(C)(C)O)co1)CCC2)C1CC1 (mixture of isomers) [Compound 6-2, (RS, RC)- and (SS, RC)-N-((5-(-1-cyclopropylethyl)-2,3-dihydro-1H-inden-4-yl)carbamoyl)-4-(2-hydroxypropan-2-yl)furan-2-sulfonimidamide]
AUC [1, 4]: 1657 ng·h/mL | Cl [1, 4]: 10.2 mL/min/kg | Vss [1, 4]: 0.781 L/kg | t1/2 [1, 4]: 1.5 h | F % ([1]; SD rats): 65.9% | AUC [1, 5]: 10920 ng·h/mL | Cmax [1, 5]: 4073 ng/mL | t1/2 [1, 5]: 2.8 h | pIC50 ([2]; THP-1 pyroptosis): 6.30 to 7.00

CC(c1ccc2c(c1NC(=O)NS(=N)(=O)c1cc(C(C)(C)O)co1)CCC2)C1CC1 (racemic) [Compound 8-2, (RS, SC)- and (SS, SC)-N-((5-(1-cyclopropylethyl)-2,3-dihydro-1H-inden-4-yl)carbamoyl)-4-(2-hydroxypropan-2-yl)furan-2-sulfonimidamide]
AUC [1, 4]: 2170 ng·h/mL | Cl [1, 4]: 7.8 mL/min/kg | Vss [1, 4]: 0.656 L/kg | t1/2 [1, 4]: 2.0 h | F % ([1]; SD rats): 66.7% | AUC [1, 5]: 14484 ng·h/mL | Cmax [1, 5]: 6190 ng/mL | t1/2 [1, 5]: 3.4 h | pIC50 ([2]; THP-1 pyroptosis): 6.00 to 6.30

CC(c1ccc2c(c1NC(=O)NS(=N)(=O)c1cc(C(C)(C)O)co1)CC2)C1CC1 (racemic) [Compound 36-1, (RS, SC)- and (SS, SC)-N-((3-(1-cyclopropylethyl)bicyclo[4.2.0]octa-1(6),2,4-trien-2-yl)carbamoyl)-4-(2-hydroxypropan-2-yl)furan-2-sulfonimidamide]
AUC [1, 4]: 14614 ng·h/mL | Cl [1, 4]: 1.3 mL/min/kg | Vss [1, 4]: 0.22 L/kg | t1/2 [1, 4]: 3.9 h | F % ([1]; SD rats): 98.5% | AUC [1, 5]: 143938 ng·h/mL | Cmax [1, 5]: 33467 ng/mL | t1/2 [1, 5]: 2.9 h | pIC50 ([2]; THP-1 pyroptosis): ≥ 7.00

C[C@@H](c1ccc2c(c1NC(=O)NS(=N)(=O)c1cc(C(C)(C)O)co1)CCC2)C1CCC1 (mixture of isomers) [Compound 80-2, (RS)- and (SS)-N-((5-((R)-1-cyclobutylethyl)-2,3-dihydro-1H-inden-4-yl)carbamoyl)-4-(2-hydroxypropan-2-yl)furan-2-sulfonimidamide]
pIC50 ([2]; THP-1 pyroptosis): ≥ 7.00 | pIC50 [3]: 7.83

CC(C)(O)c1coc(S(=N)(=O)NC(=O)Nc2c(CC3CCC3)ccc3c2CCC3)c1 (single isomer, unassigned) [Compound 18-1, RS- and SS-N-((5-(cyclobutylmethyl)-2,3-dihydro-1H-inden-4-yl)carbamoyl)-4-(2-hydroxypropan-2-yl)furan-2-sulfonimidamide]
AUC ([1]; rat, in vivo, iv, 1 mg/kg): 2226 ng·h/mL | Cl ([1]; rat, in vivo, iv, 1 mg/kg): 7.59 mL/min/kg | Vss ([1]; rat, in vivo, iv, 1 mg/kg): 0.845 L/kg | t1/2 ([1]; rat, in vivo, iv, 1 mg/kg): 2.2 h | AUC ([1]; rat, in vivo, po, 10 mg/kg): 20153 ng·h/mL | Cmax ([1]; rat, in vivo, po, 10 mg/kg): 9867 ng/mL | t1/2 ([1]; rat, in vivo, po, 10 mg/kg): 2.9 h | pIC50 ([2]; THP-1 pyroptosis): 6.00 to 6.30

Cc1oc(S(=N)(=O)NC(=O)Nc2c(C(C)C3CC3)ccc3c2CCC3)cc1C(C)(C)O (single isomer, unassigned) [Compound 24-2, RS- and SS-N-((5-(1-cyclopropylethyl)-2,3-dihydro-1H-inden-4-yl)carbamoyl)-4-(2-hydroxypropan-2-yl)-5-methylfuran-2-sulfonimidamide]
pIC50 ([2]; THP-1 pyroptosis): ≥ 7.00 | pIC50 [3]: 7.76

[2H]c1cc([C@@H](C)C2CC2)c(NC(=O)NS(=N)(=O)c2cc(C(C)(C)O)co2)c2c1CCC2 (single isomer, unassigned) [Compound 32-2, (RS, SC)- and (SS, SC)-N-((5-(1-cyclopropylethyl)-2,3-dihydro-1H-inden-4-yl-7-d)carbamoyl)-4-(2-hydroxypropan-2-yl)furan-2-sulfonimidamide]
pIC50 ([2]; THP-1 pyroptosis): ≥ 7.00 | pIC50 ([3]; PBMC): 7.54

CC(c1cc(F)c2c(c1NC(=O)NS(=O)(=O)c1cc(C(C)(C)O)co1)CCC2)C1CC1 (centres unmarked) [Compound 9, N-((5-(1-cyclopropylethyl)-7-fluoro-2,3-dihydro-1H-inden-4-yl)carbamoyl)-4-(2-hydroxypropan-2-yl)furan-2-sulfonamide]
pIC50 ([3]; PBMC): 7.59

Cc1ccc(S(=N)(=O)NC(=O)Nc2c(C(C)C)cccc2C(C)C)cc1 (centres unmarked) [Compound 92-2, RS- and SS-N-((2,6-diisopropylphenyl)carbamoyl)-4-methylbenzenesulfonimidamide, reference compound]
pIC50 ([2]; THP-1 pyroptosis): < 5.00

(RS, RC)- and (SS, RC)-N-((5-(1-cyclopropylethyl)-2,3-dihydro-1H-inden-4-yl-7-d)carbamoyl)-4-(2-hydroxypropan-2-yl)furan-2-sulfonimidamide [Compound 31-1]
pIC50 ([2]; THP-1 pyroptosis): 6.30 to 7.00

(RS, SC)- and (SS, SC)-N-((5-(1-cyclobutylethyl)-2,3-dihydro-1H-inden-4-yl)carbamoyl)-4-(2-hydroxypropan-2-yl)furan-2-sulfonimidamide [Compound 82-2]
pIC50 ([2]; THP-1 pyroptosis): 5.30 to 6.00

(RS, SC)- and (SS, SC)-N-((5-(1-cyclopropylethyl)-2,3-dihydro-1H-inden-4-yl)carbamoyl)-4-(2-hydroxypropan-2-yl-1,1,1,3,3,3-d6)furan-2-sulfonimidamide [Compound 49-1]
pIC50 ([2]; THP-1 pyroptosis): 6.30 to 7.00

RS- and SS-N-((5-(cyclobutylmethyl)-2,3-dihydro-1H-inden-4-yl)carbamoyl)-4-(2-hydroxypropan-2-yl-1,1,1,3,3,3-d6)furan-2-sulfonimidamide [Compound 50-1]
pIC50 ([2]; THP-1 pyroptosis): 6.00 to 6.30

RS- and SS-N-((5-(cyclobutylmethyl)-2,3-dihydro-1H-inden-4-yl-7-d)carbamoyl)-4-(2-hydroxypropan-2-yl)furan-2-sulfonimidamide [Compound 39-2]
pIC50 ([2]; THP-1 pyroptosis): 5.30 to 6.00

From patent US11976054B2, “Amide derivative and preparation method therefore and use thereof in medicine” (Chengdu Baiyu Pharmaceutical Co., Ltd., priority 2019, dated 2024)
